Results: ChEMBL document CHEMBL3352214, “Studies on indolizines. Evaluation of their biological properties as microtubule-interacting agents and as melanoma targeting compounds” (Eur J Med Chem, 2015)

What was measured:
Ovis aries = species on record: Ovis aries; experiment: Inhibition of sheep brain tubulin polymerization at 100 uM by fluorescence assay
[1] = Growth inhibition of human MOLT4 cells at 10^-5 M after 48 hrs by SRB assay; format: functional; conditions: MOLT-4, 48 h, read-out: GI
HL-60(TB) = experiment: Growth inhibition of human HL-60(TB) cells at 10^-5 M after 48 hrs by SRB assay; format: functional; conditions: HL-60, 48 h, read-out: GI
[2] = Growth inhibition of human HOP92 cells at 10^-5 M after 48 hrs by SRB assay; format: functional; conditions: HOP-92, 48 h, read-out: GI
[3] = Growth inhibition of human EKVX cells at 10^-5 M after 48 hrs by SRB assay; format: functional; conditions: read-out: GI
[4] = Growth inhibition of human HCT116 cells at 10^-5 M after 48 hrs by SRB assay; format: functional; conditions: HCT-116, 48 h, read-out: GI
[5] = Growth inhibition of human HCT15 cells at 10^-5 M after 48 hrs by SRB assay; format: functional; conditions: HCT-15, 48 h, read-out: GI
MDA-MB-435 = experiment: Growth inhibition of human MDA-MB-435 cells at 10^-5 M after 48 hrs by SRB assay; format: functional; conditions: MDA-MB-435, 48 h, read-out: GI
Malme-3M = experiment: Growth inhibition of human MALME-3M cells at 10^-5 M after 48 hrs by SRB assay; format: functional; conditions: read-out: GI
A498 = experiment: Growth inhibition of human A498 cells at 10^-5 M after 48 hrs by SRB assay; format: functional; conditions: A498, 48 h, read-out: GI
CAKI-1 = experiment: Growth inhibition of human Caki1 cells at 10^-5 M after 48 hrs by SRB assay; format: functional; conditions: CAKI-1, 48 h, read-out: GI
[6] = Growth inhibition of human PC3 cells at 10^-5 M after 48 hrs by SRB assay; format: functional; conditions: PC-3, 48 h, read-out: GI
[7] = Growth inhibition of human SF295 cells at 10^-5 M after 48 hrs by SRB assay; format: functional; conditions: SF-295, 48 h, read-out: GI
SNB-75 = experiment: Growth inhibition of human SNB75 cells at 10^-5 M after 48 hrs by SRB assay; format: functional; conditions: SNB-75, 48 h, read-out: GI
MCF7 = experiment: Growth inhibition of human MCF7 cells at 10^-5 M after 48 hrs by SRB assay; format: functional; conditions: MCF7, 48 h, read-out: GI
T47D = experiment: Growth inhibition of human T47D cells at 10^-5 M after 48 hrs by SRB assay; format: functional; conditions: Homo sapiens, T47D, 48 h; read-out: GI
NCI-H522 = experiment: Growth inhibition of human NCI-H522 cells at 10^-5 M after 48 hrs by SRB assay; format: functional; conditions: NCI-H522, 48 h, read-out: GI

SMILES | inhibition (Ovis aries) [%] | inhibition of growth at 10 µM [1] [%] | inhibition of growth at 10 µM (HL-60(TB)) [%] | inhibition of growth at 10 µM [2] [%] | inhibition of growth at 10 µM [3] [%] | inhibition of growth at 10 µM [4] [%] | inhibition of growth at 10 µM [5] [%] | inhibition of growth at 10 µM (MDA-MB-435) [%] | inhibition of growth at 10 µM (Malme-3M) [%] | inhibition of growth at 10 µM (A498) [%] | inhibition of growth at 10 µM (CAKI-1) [%] | inhibition of growth at 10 µM [6] [%] | inhibition of growth at 10 µM [7] [%] | inhibition of growth at 10 µM (SNB-75) [%] | inhibition of growth at 10 µM (MCF7) [%] | inhibition of growth at 10 µM (T47D) [%] | inhibition of growth at 10 µM (NCI-H522) [%]
CCOC(=O)c1cc(C(=O)c2cc(OC)c(OC)c(OC)c2)n2ccc(C#N)cc12 | 13 | – | – | – | – | – | – | – | – | – | – | – | – | – | – | – | –
CCOC(=O)c1c(C(=O)OCC)c2cc(C)ccn2c1C(=O)c1cc(OC)c(OC)c(OC)c1 | 39 | – | – | – | – | – | – | – | – | – | – | – | – | – | – | – | –
COC(=O)c1c(C(=O)OC)c2cc(OC)ccn2c1C(=O)c1ccc(OC)cc1 | 34 | 0 | 6 | 0 | 13 | 0 | 0 | 2 | 0 | 7 | 18 | 19 | 10 | 0 | 0 | 2 | –
COC(=O)c1c(C(=O)OC)c2c(C)cc(C)cn2c1C(=O)c1cc(OC)c(OC)c(OC)c1 | 36 | – | – | – | – | – | – | – | – | – | – | – | – | – | – | – | –
CCOC(=O)c1cc(C(=O)c2cc(OC)c(OC)c(OC)c2)n2ccc(OC)cc12 | 9 | 0 | 17 | 8 | 4 | 18 | 21 | 89 | 13 | 52 | 32 | 31 | 32 | 12 | 37 | 5 | 44
COc1cc(C(=O)c2cc(C#N)c3c(C#N)cccn23)cc(OC)c1OC | 39 | 0 | 7 | 8 | – | 11 | 23 | 54 | 28 | 0 | 6 | 12 | – | 69 | 29 | 10 | 0
CCOC(=O)c1cc(C(=O)c2cc(OC)c(OC)c(OC)c2)n2cc(C)cc(C)c12 | 3 | 0 | 0 | 29 | 6 | 45 | 0 | 4 | 25 | – | 13 | 2 | 3 | 11 | 4 | 18 | 8
COc1cc(C(=O)c2cc(C(=O)O)c3cccc(C)n23)cc(OC)c1OC | 28 | 7 | 3 | – | – | 0 | 7 | 0 | 0 | 2 | 0 | 5 | 0 | 9 | 12 | 0 | 15
CCOC(=O)c1cc(C(=O)c2ccc(OC)cc2)n2cc(C)cc(C)c12 | 32 | – | 83 | 11 | 29 | 23 | 14 | 11 | 28 | 30 | 24 | 20 | 35 | 46 | 17 | 13 | 43
COC(=O)c1c(C(=O)OC)c2cc(N(C)C)ccn2c1C(=O)c1ccc(OC)c(OC)c1 | 9 | 0 | 12 | 18 | 0 | 0 | 6 | 0 | 0 | 27 | 10 | 11 | 1 | 1 | 0 | 0 | 3
CCOC(=O)c1c(C(=O)OCC)c2cc(N(C)C)ccn2c1C(=O)c1cc(OC)c(OC)c(OC)c1 | 26 | – | – | – | – | – | – | – | – | – | – | – | – | – | – | – | –
COC(=O)c1c(C(=O)OC)c2cc(OC)ccn2c1C(=O)c1cc(OC)c(OC)c(OC)c1 | 16 | 0 | 1 | – | 7 | 2 | 13 | 4 | 0 | 0 | 2 | – | 11 | 0 | 0 | 6 | 4
COC(=O)c1c2c(O)nnc(-c3ccc(OC)cc3)c2n2cc(C)cc(C)c12 | 58 | 15 | 7 | 21 | – | 2 | 0 | 0 | 0 | 45 | 15 | 24 | 2 | 19 | 6 | – | 22
COc1cc(C(=O)c2cc(C#N)c3cc(C#N)ccn23)cc(OC)c1OC | 46 | 2 | 20 | 0 | – | 2 | 21 | 81 | 26 | 10 | 3 | 8 | 4 | 7 | 15 | 6 | 12
CCOC(=O)c1cc(C(=O)c2cc(OC)c(OC)c(OC)c2)n2ccc3ccccc3c12 | 41 | – | – | – | – | – | – | – | – | – | – | – | – | – | – | – | –
COC(=O)c1c(C(=O)OC)c2cccc(C)n2c1C(=O)c1cc(OC)c(OC)c(OC)c1 | 32 | – | – | – | – | – | – | – | – | – | – | – | – | – | – | – | –
CCOC(=O)c1cc(C(=O)c2cc(OC)c(OC)c(OC)c2)n2ccc(N(C)C)cc12 | 36 | 7 | 8 | – | 9 | 0 | 0 | 5 | 0 | 11 | 10 | 12 | 0 | 0 | 7 | 5 | 0
CCOC(=O)c1c2c(O)nnc(-c3cc(OC)c(OC)c(OC)c3)c2n2cc(C)cc(C)c12 | 43 | 0 | 0 | 0 | – | 6 | 0 | 0 | 0 | 15 | 0 | 0 | 0 | 5 | 0 | 0 | 1
